The target in the test is T1, Novosphingobium aromaticivorans ketoreductase (NaKRED) mutant Y199A/N149L (parent SEQ ID NO. 2) (Novosphingobium aromaticivorans, UniProt A4XEP2, E216K/G141A/I221V/N149L/Y199A).
T1 construct: substrate 1a with NADH
T1 sequence (A4XEP2 1-259 E216K/G141A/I221V/N149L/Y199A): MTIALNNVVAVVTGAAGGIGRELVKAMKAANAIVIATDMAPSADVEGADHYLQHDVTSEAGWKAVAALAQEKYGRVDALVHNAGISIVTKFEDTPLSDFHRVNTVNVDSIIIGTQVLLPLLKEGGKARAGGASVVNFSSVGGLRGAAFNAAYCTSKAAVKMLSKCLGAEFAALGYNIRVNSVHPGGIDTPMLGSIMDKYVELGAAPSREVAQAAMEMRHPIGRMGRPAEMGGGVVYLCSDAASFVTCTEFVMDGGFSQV
Put plainly: Enzyme activity assay of purified Y199A/N149L mutant (change in absorbance at 340 nm, NADH). Type of test: biochemical. The following applies: role: substrate; 0.5 mM substrate 1a; 1 mM NADH; 0.5 μM purified enzyme; 100 mM PBS pH 7.2. The procedure:
The collected wet cells were resuspended in a reaction buffer in a ratio of 1 g wet cells to 15 mL of reaction buffer. The cells were lysed by ultrasonication in an ice bath using cycles of turn-on for 1 s and turn-off for 2 s for a total duration of 45 min. The lysate was centrifuged at 12,000 rpm and 4 °C for 15 min, and the supernatant was filtered through a 0.22 μm membrane for subsequent purification. The purification was performed by Ni-NTA affinity chromatography using a 5 mL of pre-packed column. The entire purification system was first equilibrated with an equilibration buffer, and the sample was loaded at a flow rate of 1 mL/min. Unbound impurity proteins were further removed with the equilibration buffer, and gradient elution was performed by using an elution buffer (500 mM NaCl, and 500 mM imidazole). A target protein was eluted at approximately 150 mM imidazole. The target protein was collected, and concentrated and desalted by using an ultrafiltration tube (50 kDa cutoff) to a final volume of 1 mL. A protein solution was aliquoted and stored at −80 °C for further use.
Therefore, the activity of the mutant was evaluated by monitoring the change in absorbance at 340 nm during the reaction. […] The change in absorbance was monitored over 5 min. […] A sample was prepared by filtration through a 0.22 μm membrane, and the formation of product was detected by HPLC.

Among the data in patent US20260375151A1, “KETOREDUCTASE MUTANT AND USE THEREOF” (SOUTH CHINA UNIVERSITY OF TECHNOLOGY, priority 2023, published 2026) are TON values, retold here.

As to `CC(C)C(=O)CC[C@@H](C)[C@H]1CCC2C3C(CC[C@@]21C)[C@@]1(C)CC[C@@H](O)C[C@@H]1C[C@H]3O` (stereo partly shown) [1a], the TON amounted to 438 ± 2.9.
